Data: publication PMC9436819 (JACC: Basic to Translational Science, 2022)
Entries after “also recorded” stand apart in the source; their conditions may differ. Where two headings read alike, the source gives them in different places.

Legend:
[1] = Plasma pharmacokinetics after multiple oral doses (MAD cohorts); format: in vivo, human; details: for AUC / Cmax / Tmax / half-life: human, plasma, oral; for AUC / Cmax: geometric mean (geometric CV%); for Tmax: median (range)
Description: The MAD cohorts also used a randomized, double-blind, placebo-controlled, sequential design. […] For all study groups, blood samples for PK assessment were obtained predose, up to 12 times daily on day 1, and then at regular intervals throughout the study (see Supplemental Appendix for details). Standard noncompartmental methods were used to calculate PK parameters using Phoenix WinNonlin, version 7.0; actual sample collection times were used. […] Steady-state analysis In the M AD cohort, a steady- state an alysis for […] erfo rmed o n the ln-transformed plasma trough concentrat ion (Ctrough) values using Helmert contrasts. An analysis of variance (ANOVA) model was co nducted separately fo r each dose level; day w as in cluded as the fix ed effect. Helmert contrasts were d eveloped su ch that each time- point was compared with the mean of the subsequent time-points. Steady state was established at the time-point where no statistical differen ce (alpha = 5%, 2 -sided) was obs […] the subsequent time-points. 5

[2] = Plasma pharmacokinetics after single oral doses (SAD cohorts); format: in vivo, human; details: for half-life / Cmax / AUC / Tmax / AUC(0-inf) / Vd/F: human, plasma; for half-life: po; for AUC: read-out: AUC24; for Vd/F: read-out: Vz/F
Method: The SAD portion of the study used a randomized, double-blind, placebo-controlled, sequential, escalating dose design, in which participants received single ascending oral doses of the study drug. Seven cohorts were dosed in sequence (Figure 1).
For all study groups, blood samples for PK assessment were obtained predose, up to 12 times daily on day 1, and then at regular intervals throughout the study (see Supplemental Appendix for details). Standard noncompartmental methods were used to calculate PK parameters using Phoenix WinNonlin, version 7.0; actual sample collection times were used.
Statistical A nalysis of P harm acokinetic (PK) P aram eters
The PK analyses w ere int ended to assess single- dose kinetics, multiple-dose (steady state) […]
and the influence of food on the absorption and eli mination of aficamten.
For the SAD cohort, dos e proportionality of afi camten was evaluat ed using a power model on […]
and day 14 or 17. Several considerations were taken into account when assessing dose proportionality of the drug, such as results derived from the power model statistical analysis (e.g., the slope estimate and width of the 2- sided 95% confidence intervals [CIs ]), qualitative assessment specific to th e PK of the drug, and clinical relev ance. For th e SAD cohort, the […]
time curve (A UC)from time 0 to the time of the last measurable concentration(AUC last), AUC […]
plasma concent ration ( C max). […]
The statistical linear relationship between the ln-transformed PK parameters and the ln-transformed dos e was verified by including the quadratic (ln Dos e)2 and cubic (ln Dose) 3 effects.
The statistical linear relationship was established if the quadratic and cubi c effects were not […]
significant, but of such small magnitude that they were not clinically relevant. The dose-proportionality analysis was performed using SAS® PROC MIXED.

[3] = single oral dose 1 mg, geometric mean (geometric CV%), n = 6
[4] = single oral dose 3 mg, geometric mean (geometric CV%), n = 6
[5] = single oral dose 3 mg, mean ± SD, n = 5
[6] = single oral dose 10 mg, mean ± SD, n = 4
[7] = single oral dose 25 mg, geometric mean (geometric CV%), n = 6
[8] = single oral dose 25 mg, mean ± SD, n = 6
[9] = single oral dose 40 mg, geometric mean (geometric CV%), n = 6
[10] = single oral dose 40 mg, mean ± SD, n = 5
[11] = single oral dose 50 mg, geometric mean (geometric CV%), n = 11
[12] = single oral dose 50 mg, mean ± SD, n = 9

Day by the end of which steady state was achieved ([1]; 5-mg dose once daily): 12 days | Day by the end of which steady state was achieved ([1]; 7.5-mg dose once daily): 12 days | Day by the end of which steady state was achieved ([1]; 10-mg dose once daily): 10 days | AUC ([1]; 5 mg, Day 1, 5 mg qd × 14 d, n = 6, read-out: AUC24): 278 ng·h/mL | Cmax ([1]; 5 mg, Day 1, 5 mg qd × 14 d, n = 6, read-out: Cmax): 28 ng/mL | Tmax ([1]; 5 mg, Day 1, 5 mg qd × 14 d, n = 6, read-out: Tmax): 1.3 h | half-life ([1]; 5 mg, Day 14, 5 mg qd × 14 d, arithmetic mean ± SD, n = 6, read-out: t½ (converted)): 86.4 ± 11.9 h | AUC ([1]; 5 mg, Day 14, 5 mg qd × 14 d, n = 6, read-out: AUCtau): 1320 ng·h/mL | Cmax ([1]; 5 mg, Day 14, 5 mg qd × 14 d, n = 6, read-out: Cmax,ss): 69 ng/mL | Tmax ([1]; 5 mg, Day 14, 5 mg qd × 14 d, n = 6, read-out: Tmax,ss): 2.8 h | AUC ([1]; 7.5 mg, Day 1, 7.5 mg qd × 17 d, n = 6, read-out: AUC24): 551 ng·h/mL | Cmax ([1]; 7.5 mg, Day 1, 7.5 mg qd × 17 d, n = 6, read-out: Cmax): 69.3 ng/mL | Tmax ([1]; 7.5 mg, Day 1, 7.5 mg qd × 17 d, n = 6, read-out: Tmax): 0.8 h | half-life ([1]; 7.5 mg, Day 17, 7.5 mg qd × 17 d, arithmetic mean ± SD, n = 6, read-out: t½ (converted)): 76.9 ± 14.5 h | AUC ([1]; 7.5 mg, Day 17, 7.5 mg qd × 17 d, n = 6, read-out: AUCtau): 2520 ng·h/mL | Cmax ([1]; 7.5 mg, Day 17, 7.5 mg qd × 17 d, n = 6, read-out: Cmax,ss): 148 ng/mL | Tmax ([1]; 7.5 mg, Day 17, 7.5 mg qd × 17 d, n = 6, read-out: Tmax,ss): 1 h | half-life ([1]; 10 mg, 5, 7.5, 10 mg once daily, read-out: Terminal elimination half-life, range across multiple-dose cohorts): 77 to 86 h | AUC ([1]; 10 mg, Day 1, 10 mg qd × 14 d, n = 6, read-out: AUC24): 547 ng·h/mL | Cmax ([1]; 10 mg, Day 1, 10 mg qd × 14 d, n = 6, read-out: Cmax): 54.4 ng/mL | Tmax ([1]; 10 mg, Day 1, 10 mg qd × 14 d, n = 6, read-out: Tmax): 1 h | half-life ([1]; 10 mg, Day 14, 10 mg qd × 14 d, arithmetic mean ± SD, n = 6, read-out: t½ (converted)): 79.8 ± 14.1 h | AUC ([1]; 10 mg, Day 14, 10 mg qd × 14 d, n = 6, read-out: AUCtau): 2630 ng·h/mL | Cmax ([1]; 10 mg, Day 14, 10 mg qd × 14 d, n = 6, read-out: Cmax,ss): 141 ng/mL | Tmax ([1]; 10 mg, Day 14, 10 mg qd × 14 d, n = 6, read-out: Tmax,ss): 2.5 h | Attainment of steady state ([1]; once-daily dosing): ≤ 2 weeks | half-life ([2]; 3 mg, single oral dose 3 mg, mean ± SD, n = 5, read-out: t1/2 (converted)): 75.1 ± 21.8 h | half-life ([2]; 10 mg, single oral dose 10 mg (extensive metabolizers), mean ± SD, n = 4, read-out: t1/2 (converted)): 85 h | half-life ([2]; 25 mg, single oral dose 25 mg, mean ± SD, n = 6, read-out: t1/2 (converted)): 79.8 ± 10 h | half-life ([2]; 40 mg, single oral dose 40 mg, mean ± SD, n = 4, read-out: t1/2 (converted)): 79.2 ± 18.5 h | half-life ([2]; 50 mg, single oral dose 50 mg, mean ± SD, n = 9, read-out: t1/2 (converted)): 80.4 ± 14.9 h | half-life ([2]; single oral doses, read-out: Mean half-life, range across single-dose cohorts): 75 to 85 h | Cmax [2, 3]: 5.8 ng/mL | AUC [2, 3]: 50 ng·h/mL | Tmax ([2]; single oral dose 1 mg, median (range), n = 6, read-out: Tmax): 1 h | AUC(0-inf) ([2]; single oral dose 3 mg, geometric mean (geometric CV%), n = 5): 823 ng·h/mL | Cmax [2, 4]: 26.1 ng/mL | AUC [2, 4]: 174 ng·h/mL | Vd/F [2, 5]: 393 ± 122 L | Tmax ([2]; single oral dose 3 mg, median (range), n = 6, read-out: Tmax): 1.3 h | AUC ([2]; single oral dose 10 mg (extensive metabolizers), geometric mean (geometric CV%), n = 6): 679 ng·h/mL | AUC(0-inf) ([2]; single oral dose 10 mg, geometric mean (geometric CV%), n = 4): 3430 ng·h/mL | Cmax ([2]; single oral dose 10 mg, geometric mean (geometric CV%), n = 6): 70.5 ng/mL | Vd/F [2, 6]: 362 ± 108 L | Tmax ([2]; single oral dose 10 mg, median (range), n = 6, read-out: Tmax): 2.8 h | AUC(0-inf) [2, 7]: 7110 ng·h/mL | Cmax [2, 7]: 193 ng/mL | AUC [2, 7]: 1490 ng·h/mL | Vd/F [2, 8]: 405 ± 56.6 L | Tmax ([2]; single oral dose 25 mg, median (range), n = 6, read-out: Tmax): 1.8 h | AUC(0-inf) ([2]; single oral dose 40 mg, geometric mean (geometric CV%), n = 5): 11900 ng·h/mL | Cmax [2, 9]: 383 ng/mL | AUC [2, 9]: 2530 ng·h/mL | Vd/F [2, 10]: 382 ± 66.9 L | Tmax ([2]; single oral dose 40 mg, median (range), n = 6, read-out: Tmax): 1 h | AUC(0-inf) ([2]; single oral dose 50 mg, geometric mean (geometric CV%), n = 9): 13700 ng·h/mL | Cmax [2, 11]: 359 ng/mL | AUC [2, 11]: 2830 ng·h/mL | Vd/F [2, 12]: 431 ± 123 L | Tmax ([2]; single oral dose 50 mg, median (range), n = 11, read-out: Tmax): 1 h | Tmax ([2]; single oral dose 75 mg, median (range), n = 1, read-out: Tmax): 0.5 h | Cmax ([2]; single oral dose 75 mg, n = 1): 1220 ng/mL | AUC ([2]; single oral dose 75 mg, n = 1): 4560 ng·h/mL | Tmax ([2]; single oral doses 1 to 75 mg, read-out: Median time to reach peak concentrations, range across doses): 0.5 to 2.76 h | CL/F [2, 5]: 4.2 ± 3.1 L/h | t1/2 ([2]; single oral dose 10 mg (extensive metabolizers), mean ± SD, n = 4): 84.7 ± 17.7 h | CL/F [2, 6]: 3.0 ± 0.7 L/h | CL/F [2, 8]: 3.6 ± 0.5 L/h | CL/F [2, 10]: 3.4 ± 0.6 L/h | CL/F [2, 12]: 3.8 ± 1.1 L/h | Maximum time to maximum observed concentration across all participants ([2]; single oral doses): 4.0 h
SMILES: CCc1nc(-c2ccc3c(c2)CC[C@H]3NC(=O)c2cnn(C)c2)no1 [Aficamten]
Dose proportionality of Cmax and exposure ([2]; single oral doses 1 to 50 mg): dose-proportional; also recorded: dose proportionality; also recorded: linear kinetics
